Laboratory results: patent US20210255193A1, “LYSINE REACTIVE PROBES AND USES THEREOF” (The Scripps Research Institute, priority 2017, published 2021)
One block for each compound: values may come before it.

How the values were obtained:
Assay type in all cases: binding
TTR = molecular target: T1, TTR (Homo sapiens, UniProt P02766); assay: direct labeling of recombinantly expressed proteins by gel-based ABPP (WT vs lysine mutant); conditions: TTR K35, KA mutant; 1 μM TTR in MDA-MB-231 lysate
T1 construct: made in house; host or cells: E. coli
Description: Subcloning and mutagenesis. Unless noted below, genes were amplified from cDNA prepared from low passage HEK 293T cells using the Ribozol RNA extraction reagent (Amresco) and the iScript Reverse Transcription Supermix kit (Bio-Rad). For the following proteins cDNA clones were used for amplification instead: PFKP (5180268, Dharmacon), HK1 (BC008730, transomic), SIN3A (BC137098, transomic), G6PD (BC000337, transomic) and TGIF1 (BC031268, transomic). Mouse CARM1 in pFLAG-CMV-6c was a kind gift from the Mowen lab (TSRI). NUDT2 was obtained as synthesized gene (IDT). DNA was amplified with custom forward and reverse primers using phusion polymerase (NEB, M0530S), digested with the indicated restriction enzyme and ligated into pFLAG-CMV-6c or pRK5 with the appropriate affinity tag. Lysine mutants were generated using QuikChange site-directed mutagenesis using Phusion® High-Fidelity DNA Polymerase and primers containing the desired mutations and their respective complements. The cloning of TTR and its K35A mutant has been described in Choi et al., “Chemoselective small molecules that covalently modify one lysine in a non-enzyme protein in plasma,” Nat. Chem. Biol. 6, 133-139 (2010). TTR was expressed in E. coli and purified as described. For gel-based experiments 1 μM TTR was added into 1 mg ml^−1 soluble MDA-MB-231 lysate.
Direct labeling of recombinantly expressed proteins by gel-based ABPP. 50 μL of soluble HEK 293T proteome (1 mg ml^−1) expressing the respective protein (WT or KR mutant) or transfected with an empty vector were treated with 10 μM of the indicated probe for 1 h at room temperature. The samples were analyzed as described in the previous section. For quantification of relative labeling of the different protein variants, the intensity of labeling was determined by quantifying the integrated optical intensity of the bands using ImageLab 5.2.1 software (BioRad).

SFXN1 Sideroflexin-1 = molecular target: T2, SFXN1 Sideroflexin-1 (Homo sapiens, UniProt Q9H9B4); assay: competitive isoTOP-ABPP; conditions: for isoTOP-ABPP ratio (R) at liganded lysine Q9H9B4_K170 / isoTOP-ABPP reactivity ratio at lysine Q9H9B4_K170: 50 uM, in vitro; for isoTOP-ABPP ratio (R) at liganded lysine Q9H9B4_K170: sol, 231; for isoTOP-ABPP reactivity ratio at lysine Q9H9B4_K170: 231 sol
T2 construct: endogenous in cells; host or cells: MDA-MB-231 lysate
T2 sequence (Q9H9B4 1-322): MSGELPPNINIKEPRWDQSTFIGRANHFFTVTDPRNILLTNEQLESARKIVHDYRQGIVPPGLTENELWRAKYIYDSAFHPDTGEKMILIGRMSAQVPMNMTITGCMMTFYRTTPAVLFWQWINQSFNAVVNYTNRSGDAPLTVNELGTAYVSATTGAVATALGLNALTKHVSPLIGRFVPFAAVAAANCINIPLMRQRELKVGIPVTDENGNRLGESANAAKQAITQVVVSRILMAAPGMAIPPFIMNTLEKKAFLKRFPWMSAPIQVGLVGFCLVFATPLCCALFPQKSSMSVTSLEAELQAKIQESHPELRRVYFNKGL
How it was run: (§1)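 Cell lysate (0.5 ml) was pre-treated with fragment, 50 μM for activated esters or 100 μM for guanidinylating agents, versus DMSO, then labeled 1 h at ambient temperature with 0.1 mM STP-alkyne. Light/heavy TEV tags attached by CuAAC; R = DMSO/compound MS1 peak-area ratio, median per lysine.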

[1] = molecular target: T3, RPL9P9 60S ribosomal protein L9 (Homo sapiens, UniProt P32969); assay: competitive isoTOP-ABPP; conditions: for isoTOP-ABPP ratio (R) at liganded lysine P32969_K82 / isoTOP-ABPP reactivity ratio at lysine P32969_K82: 50 uM, in vitro; for isoTOP-ABPP ratio (R) at liganded lysine P32969_K82: sol, 231; for isoTOP-ABPP reactivity ratio at lysine P32969_K82: 231 sol; for isoTOP-ABPP ratio, lysine P32969_K82: 50 uM_231_sol_in vitro
T3 construct: isoTOP-ABPP experiments performed in cell lysates (in vitro); endogenous in cells; host or cells: soluble proteome of human cancer cell lines (MDA-MB-231; Ramos and Jurkat also prepared)
How it was run: as §1

Compound: C#CCCC(=O)Oc1c(F)c(F)c(F)c(F)c1F [probe 6, Pentafluorophenyl 4-pentynoate]
labeling of WT vs mutant protein by probe (TTR): HD (the WT labeled more than the mutant (>4x difference quantified))

Compound: CC(C)(C)OC(=O)NCCCC(=O)Oc1ccc([N+](=O)[O-])cc1[N+](=O)[O-] [fragment 41, 2,4-Dinitrophenyl 4-((tert-butoxycarbonyl)amino)butanoate]
isoTOP-ABPP ratio (R) at liganded lysine Q9H9B4_K170 (SFXN1 Sideroflexin-1): 2.5
isoTOP-ABPP ratio (R) at liganded lysine P32969_K82 [1]: 0.9

Compound: O=C(CCc1cn(-c2ccccc2)nc1-c1ccccc1)Oc1ccc([N+](=O)[O-])cc1[N+](=O)[O-] [fragment 29, 2,4-Dinitrophenyl 3-(1,3-diphenyl-1H-pyrazol-4-yl)propanoate]
isoTOP-ABPP reactivity ratio at lysine Q9H9B4_K170 (SFXN1 Sideroflexin-1): 20.0

Compound: C#Cc1ccc(C(=O)Oc2c(F)c(F)c(F)c(F)c2F)cc1 [probe 13, Pentafluorophenyl 4-ethynylbenzoate]
labeling of WT vs mutant protein by probe (TTR): HD (the WT labeled more than the mutant (>4x difference quantified))

Compound: Cc1cc(C)n2c1C=C1C=CC(CCC(=O)Oc3c(F)c(F)c(S(=O)(=O)[O-])c(F)c3F)=[N+]1[B-]2(F)F.[Na+] [probe 18, reference compound]
labeling of WT vs mutant protein by probe (TTR): HD (the WT labeled more than the mutant (>4x difference quantified))

Compound: Cn1cc(CC(=O)Oc2ccc([N+](=O)[O-])cc2[N+](=O)[O-])c2ccccc21 [fragment 32, 2,4-Dinitrophenyl 2-(1-methyl-1H-indol-3-yl)acetate]
isoTOP-ABPP reactivity ratio at lysine Q9H9B4_K170 (SFXN1 Sideroflexin-1): 8.6
isoTOP-ABPP reactivity ratio at lysine P32969_K82 [1]: 1.0

Compound: O=C(CCc1ccc2c(c1)OCO2)Oc1ccc([N+](=O)[O-])cc1[N+](=O)[O-] [fragment 45, 2,4-Dinitrophenyl 3-(benzo[d][1,3]dioxol-5-yl)propanoate]
isoTOP-ABPP ratio, lysine Q9H9B4_K170 (SFXN1 Sideroflexin-1; 50 uM_231_sol_in vitro): 2.1
isoTOP-ABPP ratio, lysine P32969_K82 [1]: 1.0

Compound: O=C(CC12CC3CC(CC(C3)C1)C2)Oc1ccc([N+](=O)[O-])cc1[N+](=O)[O-] [fragment 38, 2,4-Dinitrophenyl 2-(adamantan-1-yl)acetate]
isoTOP-ABPP ratio (R) at liganded lysine Q9H9B4_K170 (SFXN1 Sideroflexin-1): 1.9

Compound: O=C(Oc1ccc([N+](=O)[O-])cc1[N+](=O)[O-])c1ccc2ccccc2n1 [fragment 35, 2,4-Dinitrophenyl quinoline-2-carboxylate]
isoTOP-ABPP ratio (R) at liganded lysine P32969_K82 [1]: 0.8

Compound: O=C(Oc1ccc([N+](=O)[O-])cc1[N+](=O)[O-])c1cc(C(F)(F)F)cc(C(F)(F)F)c1 [fragment 31, 2,4-Dinitrophenyl 3,5-bis(trifluoromethyl)benzoate]
isoTOP-ABPP reactivity ratio at lysine P32969_K82 [1]: 0.9

isoTOP-ABPP ratio, lysine Q9H9B4_K170 (SFXN1 Sideroflexin-1; 100 uM_231_sol_in vitro): 1.9
Compound: CC(C)(C)OC(=O)N=C(NC(=O)OC(C)(C)C)n1cccn1 [fragment 50, reference compound]

Compound: N#Cc1ccc(C(=O)Oc2ccc([N+](=O)[O-])cc2[N+](=O)[O-])cc1 [fragment 44, 2,4-Dinitrophenyl 4-cyanobenzoate]
isoTOP-ABPP ratio, lysine Q9H9B4_K170 (SFXN1 Sideroflexin-1; 50 uM_231_sol_in vitro): 0.9
isoTOP-ABPP ratio, lysine P32969_K82 [1]: 14.5

Compound: O=C(Oc1ccc([N+](=O)[O-])cc1[N+](=O)[O-])C(c1ccccc1)c1ccccc1 [fragment 30, 2,4-Dinitrophenyl 2,2-diphenylacetate]
isoTOP-ABPP reactivity ratio at lysine Q9H9B4_K170 (SFXN1 Sideroflexin-1): 4.5

Compound: O=C(ON1C(=O)CCC1=O)c1cc(C(F)(F)F)cc(C(F)(F)F)c1 [fragment 46, 3,5-Bis(trifluoromethyl)benzoic acid NHS ester]
isoTOP-ABPP ratio, lysine Q9H9B4_K170 (SFXN1 Sideroflexin-1; 50 uM_231_sol_in vitro): 0.9
isoTOP-ABPP ratio, lysine P32969_K82 [1]: 0.5

Compound: C#Cc1ccc(C(=O)Oc2ccccc2[N+](=O)[O-])cc1 [probe 10, 2-Nitrophenyl 4-ethynylbenzoate]
labeling of WT vs mutant protein by probe (TTR): HD (the WT labeled more than the mutant (>4x difference quantified))

Compound: C#Cc1ccc(C(=O)Oc2c(F)c(F)cc(F)c2F)cc1 [probe 12, 2,3,5,6-Tetrafluorophenyl 4-ethynylbenzoate]
labeling of WT vs mutant protein by probe (TTR): HD (the WT labeled more than the mutant (>4x difference quantified))

Compound: O=C(Oc1ccc([N+](=O)[O-])cc1[N+](=O)[O-])c1ccc(Oc2ccccc2)cc1 [fragment 39, 2,4-Dinitrophenyl 4-phenoxybenzoate]
isoTOP-ABPP ratio (R) at liganded lysine P32969_K82 [1]: 0.7

Compound: C#CCCC(=O)Oc1c(F)c(F)c(S(=O)(=O)[O-])c(F)c1F.[Na+] [probe 1, reference compound]
labeling of WT vs mutant protein by probe (TTR): HD (the WT labeled more than the mutant (>4x difference quantified))

Compound: CC(=O)Oc1ccc([N+](=O)[O-])cc1[N+](=O)[O-] [fragment 43, 2,4-Dinitrophenyl acetate]
isoTOP-ABPP ratio (R) at liganded lysine P32969_K82 [1]: 0.9
